Source: the supplement of paper PMC10949913

What was measured:
Details in all cases: 48 h
CU-ACC2 [1] = assay: AC50 viability; higher = less potent
Outline: (§1)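 Three adrenocortical carcinoma cell lines were exposed for 48 h to library compounds at 11 concentrations in 1,536-well plates, then read by CellTiter-Glo luminescence. Signals were scaled per plate against vehicle and empty-well controls. From fitted concentration-response curves of inhibitory or non-responding classes alone, AC50 and area under the curve were obtained.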

NCI-H295R [2] = assay: AC50 viability; higher = less potent
Outline: as §1

CU-ACC1 [3] = assay: AC50 viability; higher = less potent
Outline: as §1

CU-ACC2 [4] = assay: area under concentration-response curve (viability) (AUC (a.u.)); higher = less active
Outline: as §1

NCI-H295R [5] = assay: as above
Outline: as §1

CU-ACC1 [6] = assay: as above
Outline: as §1

Row | SMILES | AC50 viability (CU-ACC2 [1]) | AC50 viability (NCI-H295R [2]) | AC50 viability (CU-ACC1 [3]) | area under concentration-response curve (CU-ACC2 [4]) | area under concentration-response curve (NCI-H295R [5]) | area under concentration-response curve (CU-ACC1 [6])
1 | COc1cc(C(=O)N2CCC(N3CCN(C)CC3)CC2)ccc1Nc1ncc2c(n1)N(C)c1ccccc1C(=O)N2C | 20.9 µM | 16.6 µM | 26.3 µM | 423 | 389 | 377
2 | CC[C@@H](C)Nc1cc(C(=O)NC2CC3CC[C@@H](C2)N3c2ccc(C(=O)C3CC3)cn2)c(C)cc1C(N)=O (some centres not stated) | 0.118 µM | 0.59 µM | 0.59 µM | 405 | 408 | 330
3 | CCC(=O)N1CCN(CC1)C2=C(C=C(C=C2)N3C(=O)\C=C/C4=C3C5=CC(=CC=C5N=C4)C6=CN=C7C=CC=CC7=C6)C(F)(F)F | 0.0456 µM | 0.129 µM | 0.0102 µM | 362 | 326 | 305
4 | CN[C@@H]1C[C@H]2O[C@@](C)([C@@H]1OC)n1c3ccccc3c3c4c(c5c6ccccc6n2c5c31)C(=O)N[C@H]4O | 0.34 µM | 0.959 µM | 0.762 µM | 209 | 269 | 301
5 | CCCCCCCCc1ccc(CCC(N)(CO)CO)cc1 | 8.33 µM | 11.8 µM | 10.5 µM | 384 | 395 | 357
6 | CC/1=C(\O)C(=O)\C=C2/C1=C\C=C3/[C@@]2(C)CC[C@@]4(C)[C@@H]5C[C@@](C)(CC[C@]5(C)CC[C@]34C)C(O)=O | 6.61 µM | 23.5 µM | 13.2 µM | 515 | 447 | 474
7 | NC(=O)c1cnc(N[C@@H]2CCCC[C@@H]2N)nc1Nc1cccc(-n2nccn2)c1 | 20.9 µM | 20.9 µM | 23.5 µM | 572 | 519 | 492
8 | CNC1CCC(N(Cc2cccc(-c3ccncc3)c2)C(=O)c2sc3c(F)ccc(F)c3c2Cl)CC1 (configuration not stated) | 9.34 µM | 9.34 µM | 8.33 µM | 499 | 448 | 443
9 | COc1ccc(N2C(=O)N(c3c(C)cccc3Cl)Cc3cnc(Nc4ccc(C5CCN(C)CC5)cc4OC)nc32)nc1 | 18.6 µM | 14.8 µM | 18.6 µM | 511 | 490 | 451
10 | C[C@@H](Oc1cc(-n2cnc3ccc(CN4CCN(C)CC4)cc32)sc1C(N)=O)c1ccccc1C(F)(F)F | 16.6 µM | 11.8 µM | 11.8 µM | 540 | 446 | 471
11 | O=C(c1ccc(F)c(F)c1Nc1ccc(I)cc1F)N1CC(O)([C@@H]2CCCCN2)C1 | 3.32 µM | 10.5 µM | 6.61 µM | 299 | 371 | 308
12 | C1=CC2=N/C(=N\c3ccc(OCCN4CCCC4)c(c3)COC/C=C/COCc3cccc2c3)N1 | 2.63 µM | 4.17 µM | 3.72 µM | 436 | 387 | 387
13 | OCCCNc1cc(-c2ccnc(Nc3cccc(Cl)c3)n2)ccn1 | 0.0934 µM | 0.263 µM | 0.148 µM | 307 | 339 | 275
14 | COc1cccc2c1C(=O)c1c(O)c3c(c(O)c1C2=O)C[C@@](O)(C(=O)CO)CC3OC1CC(N2CCOC(OC)C2)C(O)C(C)O1 (some centres not stated) | 0.059 µM | 0.0833 µM | 0.0833 µM | 302 | 282 | 284
15 | C=CC(=O)Nc1cc(Nc2nccc(-c3cn(C)c4ccccc34)n2)c(OC)cc1N(C)CCN(C)C | 10.5 µM | 9.34 µM | 9.34 µM | 432 | 408 | 393
16 | COc1cc2c(Oc3ccc(NC(=O)C4(C(=O)Nc5ccc(F)cc5)CC4)cc3F)ccnc2cc1OCCCN1CCOCC1 | 9.34 µM | 6.61 µM | 10.5 µM | 549 | 436 | 469
17 | Cc1n[nH]c2ccc(-c3cncc(OC[C@@H](N)Cc4c[nH]c5ccccc45)c3)cc12 | 2.09 µM | 2.95 µM | 1.66 µM | 360 | 351 | 318
18 | CCN(CC)CCOC1=CC=C(NC2=NC=C3\C=C(/C(=O)N(C)C3=N2)C4=C(Cl)C=CC=C4Cl)C=C1 | 7.42 µM | 4.17 µM | 7.42 µM | 511 | 461 | 436
19 | CCNC(=O)C#Cc1ccc2c(c1)NC(=O)/C2=C(\Nc1ccc(CN(C)C)cc1)c1ccccc1 | 2.88 µM | 2.57 µM | 0.91 µM | 536 | 524 | 443
20 | CC(C)C[C@H](NC(=O)[C@@H](NC(=O)c1cccc(-c2ccccc2)n1)[C@@H](C)O)B(O)O | 0.0723 µM | 0.144 µM | 0.0723 µM | 297 | 337 | 300
21 | CC(C)[C@@H](N(CCCN)C(=O)C1=CC=C(C)C=C1)C/2=C(\CC3=CC=CC=C3)C(=O)C4=C(O2)C=C(Cl)C=C4 | 26.3 µM | 2.35 µM | 13.2 µM | 565 | 359 | 448
22 | CN1CCC(CNc2ccc3ncc(-c4cccc(OC(F)(F)F)c4)n3n2)CC1 | 13.2 µM | 9.34 µM | 7.42 µM | 460 | 416 | 413
23 | CC(=O)[C@]1(O)Cc2c(O)c3c(c(O)c2[C@@H](O[C@H]2C[C@H](N)[C@H](O)[C@H](C)O2)C1)C(=O)c1ccccc1C3=O | 20.9 µM | 14.8 µM | 20.9 µM | 485 | 377 | 428
24 | CC(C)C[C@@H](C=O)NC(=O)[C@H](CC(C)C)NC(=O)[C@H](CC(C)C)NC(=O)OCc1ccccc1 | 0.934 µM | 0.742 µM | 1.48 µM | 409 | 407 | 374
25 | c1cc(Nc2cc(C3CC3)n[nH]2)nc(Nc2ccc3nc[nH]c3c2)n1 | 0.332 µM | 7.42 µM | 1.05 µM | 408 | 462 | 419
26 | CC1=C2N=C([NH]C2=CC(=C1)N3CCOCC3)\C4=C(NC[C@@H](O)C5=CC=CC(=C5)Cl)\C=C/NC4=O | 0.833 µM | 0.468 µM | 0.00331 µM | 277 | 303 | 342

Row | SMILES | AC50 viability (CU-ACC2 [1]) | AC50 viability (NCI-H295R [2]) | AC50 viability (CU-ACC1 [3]) | area under concentration-response curve (CU-ACC2 [4]) | area under concentration-response curve (NCI-H295R [5]) | area under concentration-response curve (CU-ACC1 [6])
27 | ClC/1=C(NCCN2CCOCC2)/C(=O)C3=C(C=CC=N3)C1=O | 8.33 µM | 5.9 µM | 2.35 µM | 409 | 440 | 387
28 | CCC1=C2C=C(OC(=O)N3CCC(CC3)N4CCCCC4)C=CC2=NC\5=C1CN6C(=O)\C7=C(/C=C56)[C@@](O)(CC)C(=O)OC7 | 2.95 µM | 13.2 µM | 13.2 µM | 426 | 443 | 382
29 | C=CC(=O)Nc1ccc2ncnc(Nc3cccc(Br)c3)c2c1 | 14.8 µM | 0.372 µM | 13.2 µM | 375 | 409 | 360
30 | COc1cc2c(NC3CCN(CC4CCCCC4)CC3)nc(N3CCCN(C(C)C)CC3)nc2cc1OCCCN1CCCCC1 | 10.5 µM | 16.6 µM | 20.9 µM | 485 | 449 | 426
31 | Fc1ccc2[nH]ccc2c1-c1nc(N2CCOCC2)c2sc(CN3CCN(CC4CC4)CC3)cc2n1 | 26.3 µM | 20.9 µM | 18.6 µM | 462 | 487 | 482
32 | N[S+]([O-])(=O)C1=CC=C(NC/2=C/C(=O)C3=CC=CC=C3C2=O)C=C1 | 13.2 µM | 2.35 µM | 0.59 µM | 463 | 403 | 290
33 | CC(C)(O)CNc1ncc(-c2ccnc(Nc3ccncc3)n2)c(CC2CC2)n1 | 20.9 µM | 18.6 µM | 10.5 µM | 485 | 487 | 442
34 | COc1cc(N[S+](C)(=O)[O-])ccc1Nc1c2ccccc2nc2ccccc12 | 7.42 µM | 13.2 µM | 13.2 µM | 409 | 420 | 299
35 | COc1ccc(-c2cc(C(O)C3CCCCN3)c3ccccc3n2)cc1 (configuration not stated) | 14.8 µM | 7.42 µM | 10.5 µM | 377 | 455 | 432
36 | Cc1cc(C[S+](=O)([O-])c2ccccc2)cc(OCc2ccc(CN3CCC[C@@H]3CO)cc2)c1 | 20.9 µM | 26.3 µM | 14.8 µM | 463 | 425 | 428
37 | COc1cc(N2CCC(N(C)C)CC2)ccc1Nc1ncc(Cl)c(Nc2ccccc2P(C)(C)=O)n1 | 5.25 µM | 3.72 µM | 7.42 µM | 419 | 426 | 424
38 | COc1cc(N2CCC(N3CCN(C)CC3)CC2)ccc1Nc1ncc(Cl)c(Nc2ccccc2P(C)(C)=O)n1 | 1.32 µM | 2.63 µM | 2.09 µM | 398 | 409 | 383
39 | C[C@H](NC(=O)/C(C#N)=C/c1cccc(Br)n1)c1ccccc1 | 23.5 µM | 23.5 µM | 20.9 µM | 526 | 442 | 444
40 | Cc1ccc(-c2ccc3ncc4c(c3n2)n(C2CCN(C(=O)[C@H](C)O)CC2)c(=O)n4C)cn1 | 0.263 µM | 0.295 µM | 0.263 µM | 492 | 394 | 363
41 | C=CC(=O)Nc1cc2c(Nc3ccc(F)c(Cl)c3)ncnc2cc1C#CC(C)(C)N1CCN(C)CC1 | 7.42 µM | 7.42 µM | 10.5 µM | 520 | 477 | 307
42 | CCc1cc(C(N)=O)ccc1-n1nc(C(C)C)c2c(-n3cnc(-c4cnn(C)c4)c3)ccnc21 | 6.61 µM | 9.34 µM | 13.2 µM | 543 | 528 | 350
43 | Nc1ncccc1-c1nc2ccc(-c3ccccc3)nc2n1-c1ccc(C2(N)CCC2)cc1 | 16.6 µM | 5.9 µM | 8.33 µM | 437 | 408 | 354
44 | COc1cc(CCc2cc(NC(=O)c3ccc(N4C[C@@H](C)N[C@@H](C)C4)cc3)n[nH]2)cc(OC)c1 | 11.8 µM | 9.34 µM | 10.5 µM | 522 | 477 | 445
45 | COc1cccc2c1C(=O)c1c(O)c3c(c(O)c1C2=O)C[C@@](O)(C(C)=O)C[C@@H]3O[C@H]1C[C@H](N)[C@H](O)[C@H](C)O1 | 2.35 µM | 4.68 µM | 2.95 µM | 350 | 369 | 305
46 | CN(C)C/C=C/C(=O)Nc1ccc(C(=O)Nc2cccc(Nc3ncc(Cl)c(-c4c[nH]c5ccccc45)n3)c2)cc1 | 0.332 µM | 1.48 µM | 0.661 µM | 275 | 406 | 363
47 | CCCCCCCOc1ccc(CCC(N)(CO)CO)cc1C(F)(F)F | 16.6 µM | 9.34 µM | 14.8 µM | 553 | 466 | 446
48 | Cc1ccc([N+](=O)[O-])cc1[S+](=O)([O-])N(C)/N=C/c1cnc2ccc(Br)cn12 | 0.166 µM | 0.417 µM | 0.417 µM | 332 | 346 | 226
49 | CC(=O)Nc1ccc([C@H](C)C(=O)Nc2ncc(C(C)C)s2)cc1 | 5.25 µM | 18.6 µM | 9.34 µM | 376 | 485 | 448
50 | Cc1cc(OCCCc2c3n(c4c(-c5c(C)nn(C)c5C)c(Cl)ccc24)[C@H](C)CN(c2cn(C)c4ccc(C(=O)O)cc24)C3=O)cc(C)c1Cl | 16.6 µM | 2.95 µM | 16.6 µM | 570 | 445 | 367
51 | COCCOc1ccc2c(c1)ncn2-c1ccc2cccc(N3CCC(N)CC3)c2n1 | 10.5 µM | 6.61 µM | 16.6 µM | 370 | 420 | 409
52 | C[C@@H](NCc1cc2ccccc2[nH]1)c1cccc2ccccc12 | 20.9 µM | 23.5 µM | 20.9 µM | 479 | 428 | 428
